In ChEMBL document CHEMBL5150074, “Structure-Based Design of a Dual-Targeted Covalent Inhibitor Against Papain-like and Main Proteases of SARS-CoV-2” (J Med Chem, 2022):
The source made the active and inactive calls. The rule behind the calls is not given here.

How the values were obtained:
[1] = target: Replicase polyprotein 1ab (Severe acute respiratory syndrome coronavirus 2) (UniProt P0DTD1); assay: Inhibition of SARS-CoV-2 PLpro expressed in Escherichia coli BL21(DE3) using CBZ-RLRGG-AMC as substrate at 5 uM incubated for 30 mins followed by substrate addition by FRET assay
[2] = target: T1, Replicase polyprotein 1ab (Severe acute respiratory syndrome coronavirus 2, UniProt P0DTD1); assay: Inhibition of SARS-CoV-2 PLpro
[3] = target: T1, Replicase polyprotein 1ab; assay: Inhibition of SARS-CoV2 main protease
[4] = target: Replicase polyprotein 1ab (Severe acute respiratory syndrome coronavirus 2) (UniProt P0DTD1); assay: Inhibition of SARS-CoV-2 MPro expressed in Escherichia coli BL21(DE3) using Dabcyl-KLSAVLQSGERKM-Edans as substrate at 5 uM incubated for 30 mins followed by substrate addition by FRET assay
[5] = target: Replicase polyprotein 1ab (Severe acute respiratory syndrome coronavirus 2) (UniProt P0DTD1); assay: Binding affinity to SARS-CoV-2 MPro expressed in Escherichia coli BL21(DE3) assessed as mass shift at 15 uM incubated for 4 hrs by mass spectrometry analysis
[6] = target: Replicase polyprotein 1ab (Severe acute respiratory syndrome coronavirus 2) (UniProt P0DTD1); assay: Binding affinity to SARS-CoV-2 PLpro expressed in Escherichia coli BL21(DE3) assessed as mass shift at 30 uM incubated for 4 hrs by mass spectrometry analysis
[7] = Drug metabolism in normal saline assessed as conversion of closed form to open form by measuring rate constant at equilibrium at 2 mg/ml measured at 5 hrs by RP-HPLC analysis; format: ADME; settings: buffer
[8] = target: Replicase polyprotein 1ab (Severe acute respiratory syndrome coronavirus 2) (UniProt P0DTD1); assay: Covalent binding affinity to Cys145 residue of SARS-CoV-2 MPro expressed in Escherichia coli BL21(DE3) assessed as trypsin digestion mediated mass shift by mass spectrometry analysis
[9] = target: Replicase polyprotein 1ab (Severe acute respiratory syndrome coronavirus 2) (UniProt P0DTD1); assay: Covalent binding affinity to Cys111 residue of SARS-CoV-2 PLpro expressed in Escherichia coli BL21(DE3) assessed as mass shift at 3 to 15 uM incubated for 4 hrs followed by trypsin digestion by mass spectrometry analysis; settings: dose 3-15 µM
[10] = target: T1, Replicase polyprotein 1ab; assay: Inhibition of SARS-CoV-2 MPro expressed in Escherichia coli BL21(DE3) using Dabcyl-KLSAVLQSGERKM-Edans as substrate assessed as inhibition constant measured for 30 mins by fluorimetry based microplate reader analysis
[11] = target: Replicase polyprotein 1ab (Severe acute respiratory syndrome coronavirus 2) (UniProt P0DTD1); assay: Inhibition of SARS-CoV-2 MPro expressed in Escherichia coli BL21(DE3) using Dabcyl-KLSAVLQSGERKM-Edans as substrate assessed as inactivation constant measured for 30 mins by fluorimetry based microplate reader analysis
[12] = target: Replicase polyprotein 1ab (Severe acute respiratory syndrome coronavirus 2) (UniProt P0DTD1); assay: Inhibition of SARS-CoV-2 MPro expressed in Escherichia coli BL21(DE3) using Dabcyl-KLSAVLQSGERKM-Edans as substrate assessed as Kinact/Ki measured for 30 mins by fluorimetry based microplate reader analysis
[13] = target: T1, Replicase polyprotein 1ab; assay: Inhibition of SARS-CoV-2 PLpro expressed in Escherichia coli BL21(DE3) using CBZ-RLRGG-AMC as substrate assessed as inhibition constant measured for 30 mins by fluorimetry based microplate reader analysis
[14] = target: Replicase polyprotein 1ab (Severe acute respiratory syndrome coronavirus 2) (UniProt P0DTD1); assay: Inhibition of SARS-CoV-2 PLpro expressed in Escherichia coli BL21(DE3) using CBZ-RLRGG-AMC as substrate assessed as inactivation constant measured for 30 mins by fluorimetry based microplate reader analysis
[15] = target: Replicase polyprotein 1ab (Severe acute respiratory syndrome coronavirus 2) (UniProt P0DTD1); assay: Inhibition of SARS-CoV-2 PLpro expressed in Escherichia coli BL21(DE3) using CBZ-RLRGG-AMC as substrate assessed as Kinact/Ki measured for 30 mins by fluorimetry based microplate reader analysis
[16] = target: Serine/threonine-protein kinase PAK 2 (Homo sapiens) (UniProt Q13177); assay: Inhibition of human PAK2 at 1 uM by DiscoverX KINOMEscan assay relative to control
[17] = target: Serine/threonine-protein kinase pim-1 (Homo sapiens) (UniProt P11309); assay: Inhibition of human PIM1 at 1 uM by DiscoverX KINOMEscan assay relative to control
[18] = target: T2, Cathepsin B (Homo sapiens, UniProt P07858); assay: Inhibition of His-tagged recombinant human Cathepsin B expressed in HEK293 cells using Z-Leu-Arg-AMC as substrate incubated for 30 mins followed by substrate addition by fluorescence based analysis
[19] = target: T3, Procathepsin L (Homo sapiens, UniProt P07711); assay: Inhibition of human Cathepsin L using Z-Leu-Arg-AMC as substrate incubated for 30 mins followed by substrate addition by fluorescence based analysis
Target sequence in this assay (P07711 whole entry): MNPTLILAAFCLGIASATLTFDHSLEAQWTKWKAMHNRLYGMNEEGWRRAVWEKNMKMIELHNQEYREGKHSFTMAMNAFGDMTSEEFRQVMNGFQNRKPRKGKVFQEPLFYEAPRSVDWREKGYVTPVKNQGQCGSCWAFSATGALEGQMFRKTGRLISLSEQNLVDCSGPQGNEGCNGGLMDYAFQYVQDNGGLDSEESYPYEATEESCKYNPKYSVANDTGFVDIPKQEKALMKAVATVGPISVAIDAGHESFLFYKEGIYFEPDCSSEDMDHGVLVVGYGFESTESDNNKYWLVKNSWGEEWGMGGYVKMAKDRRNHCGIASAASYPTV

[20] = target: T1, Replicase polyprotein 1ab; assay: Inhibition of SARS-CoV-2 MPro expressed in Escherichia coli BL21(DE3) using Dabcyl-KLSAVLQSGERKM-Edans as substrate incubated for 30 mins followed by substrate addition by FRET assay
[21] = target: T1, Replicase polyprotein 1ab; assay: Inhibition of SARS-CoV-2 PLpro expressed in Escherichia coli BL21(DE3) using CBZ-RLRGG-AMC as substrate incubated for 30 mins followed by substrate addition by FRET assay
[22] = target: T2, Cathepsin B; assay: Reversible inhibition of His-tagged recombinant human Cathepsin B expressed in HEK293 cells using Z-Leu-Arg-AMC as substrate at 120 nM incubated for 2.5 hrs followed by 100 fold dilution and incubated for 5 min and further incubated with substrate by fluorescence based analysis; settings: time 155.0 min
[23] = target: T3, Procathepsin L; assay: Irreversible inhibition of human Cathepsin L using Z-Leu-Arg-AMC as substrate at 300 nM incubated for 5 hrs followed by 100 fold dilution and incubated for 5 min and further incubated with substrate by fluorescence based analysis; settings: time 305.0 min
Target sequence in this assay (P07711 114-333 limits assumed): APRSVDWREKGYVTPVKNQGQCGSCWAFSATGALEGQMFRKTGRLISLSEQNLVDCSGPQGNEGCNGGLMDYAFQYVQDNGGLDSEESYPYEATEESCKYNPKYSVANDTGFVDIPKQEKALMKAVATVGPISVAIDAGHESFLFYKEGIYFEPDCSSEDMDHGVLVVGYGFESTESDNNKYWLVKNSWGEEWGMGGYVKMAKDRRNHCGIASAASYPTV

[24] = test system: SARS-CoV-2; assay: Antiviral activity against SARS-CoV-2 infected in Vero E6 cells assessed as reduction in viral nucleoprotein levels at 5 uM pretreated with Vero E6 cells for 1 hr followed by viral infection and further incubated for 1 followed by compound washout and measured after 48 hrs by Hoechst 33258 staining based fluorescence microscopy analysis; format: functional, organism-based; settings: Severe acute respiratory syndrome coronavirus 2, time 2.0 hrs
[25] = test system: SARS-CoV-2; assay: Antiviral activity against SARS-CoV-2 infected in Vero E6 cells assessed as reduction in viral nucleoprotein expression measured after 48 hrs by qRT-PCR analysis; format: functional, organism-based; settings: Severe acute respiratory syndrome coronavirus 2, Vero C1008, 48 h
[26] = test system: SARS-CoV-2; assay: Antiviral activity against SARS-CoV-2 infected in Vero E6 cells assessed as reduction in viral RdRP RNA levels at 15 uM measured after 48 hrs by qRT-PCR analysis; format: functional, Severe acute respiratory syndrome coronavirus 2; parameters: scale not given: the % may be the effect or the level left
[27] = test system: Vero C1008; assay: Cytotoxicity against African green monkey Vero E6 cells infected with SARS-CoV-2 assessed as reduction in cell viability at 15 uM measured after 48 hrs by CCK-8 assay; format: toxicity, cell-based; settings: chlorocebus sabaeus, vero c1008, 48 h
[28] = Toxicity in overnight fasted Kunming mouse assessed as animal death at 400 mg/kg, iv measured after 15 days; format: organism-based; settings: in vivo, 360 h, time 15 day
[29] = Solubility of compound in saline at higher dose; format: physicochemical; settings: buffer
[30] = Acute toxicity in overnight fasted Kunming mouse assessed as animal death at 1050 mg/kg, iv measured after 15 days; format: organism-based; settings: in vivo, 360 h, time 15 day
[31] = Acute toxicity in overnight fasted Kunming mouse assessed as toxic signs at 1050 mg/kg, iv measured after 15 days; format: organism-based; settings: in vivo, 360 h, time 15 day
[32] = Acute toxicity in overnight fasted Kunming mouse assessed as signs of abnormality at 1310 mg/kg, iv measured after 15 days; format: organism-based; settings: in vivo, 360 h, time 15 day
[33] = Acute toxicity in iv dosed overnight fasted Kunming mouse assessed as maximum tolerated dose measured after 15 days; format: organism-based; settings: in vivo, time 15 day
[34] = Acute toxicity in iv dosed overnight fasted Kunming mouse assessed as minimum lethal dose measured after 15 days; format: organism-based; settings: in vivo, 360 h, time 15 day
[35] = Acute toxicity in overnight fasted Kunming mouse assessed as reduction in body weight at 1049 to 4000 mg/kg, iv measured after 15 days; format: organism-based; settings: in vivo, 360 h, dose 1049-4000 mg/kg, time 15 day
[36] = Acute toxicity in Sprague-Dawley rat assessed as reduction in body weight at upto 300 mg/kg, po administered via gavage for 4 weeks followed by recovery for 4 weeks; format: organism-based; settings: in vivo, 1344 h, time 8 weeks
[37] = Acute toxicity in Sprague-Dawley rat assessed as effect on food consumption at upto 300 mg/kg, po administered via gavage for 4 weeks followed by recovery for 4 weeks; format: organism-based; settings: in vivo, 1344 h, time 8 weeks
[38] = Acute toxicity in Sprague-Dawley rat assessed as cellular swelling in hepatocytes at 300 mg/kg, po administered via gavage for 4 weeks; format: organism-based; settings: in vivo, 672 h
[39] = Acute toxicity in Sprague-Dawley rat assessed as cellular swelling in hepatocytes at 300 mg/kg, po administered via gavage for 4 weeks followed by recovery for 4 weeks; format: organism-based; settings: in vivo, 1344 h, time 8 weeks

Sequence of Serine/threonine-protein kinase pim-1 (Homo sapiens) (P11309 whole entry, looked up): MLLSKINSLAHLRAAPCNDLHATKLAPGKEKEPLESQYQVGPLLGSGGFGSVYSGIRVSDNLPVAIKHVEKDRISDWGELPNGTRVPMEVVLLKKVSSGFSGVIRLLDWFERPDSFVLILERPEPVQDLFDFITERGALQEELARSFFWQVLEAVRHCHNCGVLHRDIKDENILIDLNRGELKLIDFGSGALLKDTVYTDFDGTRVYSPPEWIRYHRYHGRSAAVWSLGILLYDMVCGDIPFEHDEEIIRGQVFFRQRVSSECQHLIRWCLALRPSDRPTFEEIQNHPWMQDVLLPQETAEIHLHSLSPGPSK
Sequence of Serine/threonine-protein kinase PAK 2 (Homo sapiens) (Q13177 whole entry): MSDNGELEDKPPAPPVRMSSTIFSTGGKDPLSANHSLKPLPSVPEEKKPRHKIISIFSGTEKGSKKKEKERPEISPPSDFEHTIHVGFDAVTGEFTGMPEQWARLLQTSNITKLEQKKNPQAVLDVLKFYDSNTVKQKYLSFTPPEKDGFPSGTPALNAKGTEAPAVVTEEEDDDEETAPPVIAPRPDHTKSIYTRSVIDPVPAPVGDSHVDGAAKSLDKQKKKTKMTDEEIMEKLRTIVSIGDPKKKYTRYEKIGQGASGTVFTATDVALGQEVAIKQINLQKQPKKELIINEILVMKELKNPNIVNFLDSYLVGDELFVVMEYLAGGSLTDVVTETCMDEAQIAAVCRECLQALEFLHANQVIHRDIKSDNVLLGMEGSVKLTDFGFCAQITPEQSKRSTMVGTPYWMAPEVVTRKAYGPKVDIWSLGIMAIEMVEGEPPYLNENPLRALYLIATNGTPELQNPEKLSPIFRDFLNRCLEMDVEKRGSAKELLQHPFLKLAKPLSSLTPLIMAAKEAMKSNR

CNS(=O)(=O)c1cccc2c1C(=O)C(Nc1ccccc1)=CC2=O
inhibition [1]: Active

COC(=O)/C=C/C(=O)NNC(=O)/C=C/c1ccccc1C(=O)N[C@H](C)c1cccc2ccccc12
IC50 [2]: 94 nM

CC1=NC2C(=O)C(Nc3ccc(C)cc3)=CC(=O)C2S1 (stereo unspecified)
IC50 [2]: 390 nM

CC(C)C[C@H](NC(=O)[C@@H](NC(=O)OCc1ccccc1)C(C)C)C(=O)N[C@@H](C[C@@H]1CCNC1=O)C(=O)c1nc2ccccc2s1
Ki [3]: 14.5 nM

Cl.O=C1C=C(Nc2ccccc2N2CCNCC2)C2=NS(=O)(=O)c3cccc1c32
inhibition [4]: Active
inhibition [1]: Active
Activity [5]: 392 Da
Activity [6]: 410 Da
Ke [7]: 0.012 min⁻¹
Activity [8]: Active
Activity [9]: Active
Ki [10]: 7100 nM
Kinact [11]: 0.0048 s⁻¹
Ratio [12]: 710 M⁻¹ s⁻¹
Ki [13]: 16000 nM
Kinact [14]: 0.0081 s⁻¹
Ratio [15]: 500 M⁻¹ s⁻¹
inhibition [16]: 10%
inhibition [17]: 35%
IC50 [18]: 8800 nM
IC50 [19]: 2200 nM
IC50 [20]: 120 nM
IC50 [21]: 990 nM
inhibition [22]: Active
inhibition [23]: Active
Activity [24]: Active
IC50 [25]: 3900 nM
Activity [26]: 99.9%
Activity [27]: Non-Toxic
Activity [28]: Non-Toxic
solubility [29]: Insoluble
Activity [30]: Non-Toxic
Activity [31]: Non-Toxic
Activity [32]: Non-Toxic
MTD at 360 h [33]: 1000 mg/kg
MLC [34]: 1300 mg/kg
Activity [35]: Non-Toxic
Activity [36]: Non-Toxic
Activity [37]: Non-Toxic
Activity [38]: Toxic
Activity [39]: Non-Toxic
